pEC50, pIC50, pKi: −log10 of the molar value.
Tests used:
hPR [1] = molecular target: T1, hPR (Homo sapiens, UniProt P06401); test: T47D alkaline phosphatase assay, agonist mode; assay type: cell-based; conditions: T47D human breast cancer cells; for Emax: T47D, read-out: hPR Agonist T47D cells Eff. (%)
T1 sequence (P06401 679-933 limits assumed): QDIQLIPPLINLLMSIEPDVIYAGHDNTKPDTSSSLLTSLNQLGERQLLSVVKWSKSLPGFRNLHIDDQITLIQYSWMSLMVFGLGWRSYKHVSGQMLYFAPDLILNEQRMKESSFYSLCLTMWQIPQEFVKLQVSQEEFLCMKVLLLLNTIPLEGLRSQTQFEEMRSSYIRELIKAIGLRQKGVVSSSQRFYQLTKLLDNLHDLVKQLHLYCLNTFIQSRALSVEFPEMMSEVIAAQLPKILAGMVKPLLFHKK
From the text: (§1) The potential tissue-selectivities of the selected analogues were examined by using the T47D alkaline phosphatase assay that was developed from human breast cancer cells with endogenous PRs.

hPR [2] = molecular target: T2, hPR (Homo sapiens, UniProt P06401); test: hPR cotransfection assay in CV-1 cells, antagonist mode; assay type: cell-based; conditions: for Emax: CV-1, CV-1 cells, read-out: hPR Antagonist CV-1 Cells Eff. (%)
T2 sequence (P06401 1-933): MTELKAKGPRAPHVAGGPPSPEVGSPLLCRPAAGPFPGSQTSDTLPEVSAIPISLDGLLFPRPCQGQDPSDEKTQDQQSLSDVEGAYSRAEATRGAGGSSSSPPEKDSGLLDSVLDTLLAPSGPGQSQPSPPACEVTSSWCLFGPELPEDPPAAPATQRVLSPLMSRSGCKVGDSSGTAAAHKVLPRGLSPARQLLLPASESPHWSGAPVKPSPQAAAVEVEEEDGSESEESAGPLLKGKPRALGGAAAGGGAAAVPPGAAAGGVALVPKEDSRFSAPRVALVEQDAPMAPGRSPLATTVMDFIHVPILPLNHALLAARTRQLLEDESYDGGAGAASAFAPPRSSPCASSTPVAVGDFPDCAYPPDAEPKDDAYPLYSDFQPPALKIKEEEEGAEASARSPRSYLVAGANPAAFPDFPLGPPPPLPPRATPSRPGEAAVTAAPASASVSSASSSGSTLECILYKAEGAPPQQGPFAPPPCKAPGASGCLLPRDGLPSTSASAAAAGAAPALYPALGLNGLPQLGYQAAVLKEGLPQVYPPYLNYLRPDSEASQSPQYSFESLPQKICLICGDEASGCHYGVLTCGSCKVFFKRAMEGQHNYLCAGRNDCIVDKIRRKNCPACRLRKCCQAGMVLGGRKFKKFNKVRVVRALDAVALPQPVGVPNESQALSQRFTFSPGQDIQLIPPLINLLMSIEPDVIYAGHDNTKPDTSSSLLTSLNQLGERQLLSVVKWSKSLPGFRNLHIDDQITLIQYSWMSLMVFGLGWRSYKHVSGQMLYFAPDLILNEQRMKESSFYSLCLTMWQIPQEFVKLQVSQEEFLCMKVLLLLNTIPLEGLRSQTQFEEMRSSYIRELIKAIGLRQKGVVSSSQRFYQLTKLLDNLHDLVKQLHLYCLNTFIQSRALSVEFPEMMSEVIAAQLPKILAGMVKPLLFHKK
Procedure: (§2) Antagonist efficacy was determined as a function (%) of maximal inhibition of a reference agonist at EC50 concentration. All the cotransfection experiments were carried out in 96-well plates by automation (Beckman Biomomek automated workstation).

hPR [3] = molecular target: T1, hPR; test: T47D alkaline phosphatase assay, antagonist mode; assay type: cell-based; conditions: T47D human breast cancer cells; for Emax: read-out: hPR Antagonists T47D Cells Eff. (%); for pIC50: read-out: hPR Antagonists T47D Cells IC50
From the text: as §1

hPR [4] = molecular target: T2, hPR; test: hPR cotransfection assay in CV-1 cells, agonist mode; assay type: cell-based; conditions: for Emax: CV-1, CV-1 cells, read-out: hPR Agonist CV-1 Cells Eff. (%); for pEC50: read-out: hPR Agonist CV-1 Cells EC50; for EC50: Tables 3 and 4, values without footnote, read-out: hPR agonist potencies (EC50 in nM) in the cotransfection assay
Procedure: as §2

hPR-A = molecular target: T3, hPR-A (Homo sapiens, UniProt P06401); test: Receptor competitive binding assay; conditions: read-out: PR binding Ki
T3 sequence (P06401 1-769 isoform P06401-2): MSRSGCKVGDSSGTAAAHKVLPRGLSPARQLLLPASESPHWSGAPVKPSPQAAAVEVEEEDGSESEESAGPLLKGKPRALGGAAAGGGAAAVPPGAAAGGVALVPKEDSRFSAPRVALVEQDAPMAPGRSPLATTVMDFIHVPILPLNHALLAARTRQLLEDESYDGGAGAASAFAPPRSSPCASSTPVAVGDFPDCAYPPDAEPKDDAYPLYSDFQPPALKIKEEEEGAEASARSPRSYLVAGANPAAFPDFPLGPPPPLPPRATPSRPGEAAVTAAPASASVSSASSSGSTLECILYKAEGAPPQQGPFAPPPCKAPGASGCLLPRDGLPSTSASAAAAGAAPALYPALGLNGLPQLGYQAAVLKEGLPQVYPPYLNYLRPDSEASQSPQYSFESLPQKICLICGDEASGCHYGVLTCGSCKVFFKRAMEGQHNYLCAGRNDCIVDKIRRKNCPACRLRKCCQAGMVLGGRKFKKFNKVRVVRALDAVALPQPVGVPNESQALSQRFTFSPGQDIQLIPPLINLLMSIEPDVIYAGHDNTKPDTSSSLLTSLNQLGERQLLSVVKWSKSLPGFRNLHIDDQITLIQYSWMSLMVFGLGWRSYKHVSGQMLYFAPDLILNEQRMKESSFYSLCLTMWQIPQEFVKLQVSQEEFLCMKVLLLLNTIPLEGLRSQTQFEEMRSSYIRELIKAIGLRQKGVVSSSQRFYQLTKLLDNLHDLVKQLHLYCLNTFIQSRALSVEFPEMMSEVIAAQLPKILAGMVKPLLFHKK

immature rabbits = test: McPhail (Clauberg) rabbit assay of progestational activity; assay type: in vivo; conditions: Oryctolagus cuniculus; estradiol-primed immature rabbits; glandular changes of the uterus; read-out: potency (MAD in mg/kg), minimum active dose
Procedure: The superiority of the 7,9-difluoro analogue compounds of the present invention was further characterized utilizing the McPhail rabbit model according to the following illustrative Examples. The Clauberg or McPhail assay is a classic assay utilizing rabbits to measure progestational activity. […] In this assay, immature rabbits are treated initially with estradiol, which induces growth in the uterus. This is followed by a progestin, which causes a large change in the glandular content of the uterus. It is this change in the glandular component which is a measure of the progestational activity of a progestin. The measurement of these glandular changes is carried out histologically using stained sections of the uterus. The in vivo comparison between the new 7,9-difluoro compounds and analogues with substitution patterns different from 7,9-difluoro (U.S. Pat. Nos. 5,693,646 and 5,696,127) is tabulated in Tables 7 and 8. The in vivo potency of the progestins is presented as the minimum active dose (MAD).

[5] = system: ovariectomized female rats; test: Multi-endpoint adult rat model, uterus/breast tissue-selectivity; assay type: in vivo; conditions: ratio of relative efficacy to MPA in uterus verse in breast tissue at the same highest dose tested; estrone-treated ovariectomized rats, three days
From the text: In this assay, advantage is taken of the fact that in the uterus, estrogens induce a proliferation and increase in the epithelial cell height and uterine wet weight, which can be antagonized by progestins. In the breast, estrogens induce a proliferation of the ductal network while progestins stimulate the growth of the lobular-alveolar end buds, which grow from the distal end of the ducts. […] Proliferating cells or inhibition of proliferating cells were quantitated either by measurements of cell height in sectioned and stained tissue samples or, in the case of the breast, immuno-histochemically labeled Brdu incorporated nuclei.

[6] = maximal inhibition of reference agonist at EC50 concentration
[7] = relative to maximal response of progesterone as 100%

Structure (SMILES)	pEC50 (hPR [1])	pIC50 (hPR [2]; CV-1 cells)	pIC50 (hPR [3])	pEC50 (hPR [4]; CV-1 cells)	pKi (hPR-A)	minimal effective dose (immature rabbits) [mg/kg]	uterus/breast tissue-selectivity [5]	further results
COC1Oc2c(F)cc(F)cc2-c2ccc3c(c21)C(C)=CC(C)(C)N3 (racemic) [Compound 32, (±)-7,9-difluoro-5-methoxy-1,2-dihydro-2,2,4-trimethyl-5H-chromeno[3,4-f]quinoline]	6.50	7.12	6.60	< 5.00	7.43	–	–	Emax (hPR [1]): 36%; Emax (hPR [2]; [6]): 76%; Emax (hPR [3]): 35%; Emax (hPR [4]; [7]): < 20%
CC1=CC(C)(C)Nc2ccc3c(c21)C(CC(=O)c1ccccc1)Oc1c(F)cc(F)cc1-3 (racemic) [Compound 45, (±)-7,9-difluoro-5-(2-oxo-2-phenylethyl)-1,2-dihydro-2,2,4-trimethyl-5H-chromeno[3,4-f]quinoline]	6.71	7.38	< 5.00	< 5.00	7.74	–	–	Emax (hPR [1]): 77%; Emax (hPR [2]; [6]): 79%; Emax (hPR [3]): < 20%; Emax (hPR [4]; [7]): < 20%
C#CCC1Oc2c(F)cc(F)cc2-c2ccc3c(c21)C(C)=CC(C)(C)N3 (racemic) [Compound 71, (±)-7,9-difluoro-5-(2-propynyl)-1,2-dihydro-2,2,4-trimethyl-5H-chromeno[3,4-f]quinoline]	–	–	–	–	–	< 0.5	–	–
CC1=CC(C)(C)Nc2ccc3c(c21)C(c1cc2ccccc2s1)Oc1c(F)cc(F)cc1-3 (single isomer, unassigned; (-)) [Compound 64, (−)-7,9-difluoro-5-(benzo[b]thien-2-yl)-1,2-dihydro-2,2,4-trimethyl-5H-chromeno[3,4-f]quinoline]	–	–	–	–	–	0.25	2.8	–
CC#CC1Oc2c(F)cc(F)cc2-c2ccc3c(c21)C(C)=CC(C)(C)N3 (single isomer, unassigned; (-)) [Compound 75, (−)-7,9-difluoro-5-(1-propynyl)-1,2-dihydro-2,2,4-trimethyl-5H-chromeno[3,4-f]quinoline]	–	–	–	–	–	< 0.5	4.2	–
C#C[C@]1(O)CC[C@H]2[C@@H]3CCC4=CC(=O)CC[C@@H]4[C@H]3C(=C)C[C@@]21CC [3-ketodesogestrel, reference compound]	9.70	< 5.00	< 5.00	10.00	9.52	–	–	hPR Agonist T47D cells Eff. (%) (hPR [1]): 94%; hPR Antagonist CV-1 Cells Eff. (%) (hPR [2]; CV-1 cells, maximal inhibition of reference agonist at EC50 concentration): na (na = not active (i.e. efficacy of <20 and potency of >10,000)); hPR Antagonists T47D Cells Eff. (%) (hPR [3]): na (na = not active (i.e. efficacy of <20 and potency of >10,000)); hPR Agonist CV-1 Cells Eff. (%) (hPR [4]; CV-1 cells, relative to maximal response of progesterone as 100%): 190%
CC1=CC(C)(C)Nc2ccc3c(c21)/C(=C/c1ccccc1F)Oc1c(F)cc(F)cc1-3 [Compound 12, 7,9-difluoro-5(Z)-(2-fluorobenzylidene)-1,2-dihydro-2,2,4-trimethyl-5H-chromeno[3,4-f]quinoline]	–	–	–	–	–	0.5	–	EC50 (hPR [4]): 2.55 nM
CC1=CC(C)(C)Nc2ccc3c(c21)/C(=C/C#N)Oc1c(F)cc(F)cc1-3 [Compound 24, 7,9-difluoro-5(Z)-cyanomethylidene-1,2-dihydro-2,2,4-trimethyl-5H-chromeno[3,4-f]quinoline]	7.10	< 5.00	6.08	8.03	7.24	–	–	Emax (hPR [1]): 72%; Emax (hPR [2]; [6]): < 20%; Emax (hPR [3]): 26%; Emax (hPR [4]; [7]): 52%
CC1=CC(C)(C)Nc2ccc3c(c21)C(c1ccc(Cl)c(C)c1)Oc1ccc(F)cc1-3 (stereo not drawn) [Formula I X=9-F 4-Cl-3-Me-Ph, reference compound]	–	–	–	–	–	1	–	–
CC1=CC(C)(C)Nc2ccc3c(c21)C(c1cccc(C(F)(F)F)c1)Oc1ccccc1-3 (stereo not drawn) [Formula I X=H 3-CF3-Ph, reference compound]	–	–	–	–	–	–	3.5	–
CC1=CC(C)(C)Nc2ccc3c(c21)C(c1ccc(Cl)cc1)Oc1ccccc1-3 (stereo not drawn) [Formula I X=H 4-Cl-Ph, reference compound]	–	–	–	–	–	–	1.5	–
CC1=CC(C)(C)Nc2ccc3c(c21)/C(=C/c1cccc(F)c1)Oc1ccc(F)cc1-3 [Formula II X=9-F 3-F-Ph, reference compound]	–	–	–	–	–	–	2.2	EC50 (hPR [4]): 7 nM

Source: US7163946B2 (Ligand Pharmaceuticals Incorporated, priority 2002, dated 2007)
